Measurements published in article PMC8945229, “Development and Biological Characterization of a Novel Selective TrkA Agonist with Neuroprotective Properties against Amyloid Toxicity” (Biomedicines, 2022).

What was measured:
[1] = target: T1, TrkB (Homo sapiens, UniProt Q16620); assay: TrkB phosphorylation in NIH-3T3 cells stably transfected with TrkB; type: cell-based; settings: 500 nM, 30′
T1 construct: expressed in transfected cells
Procedure: PC12 and HEK293T cells were obtained from LGC Promochem GmbH (Teddington, UK) and cultured under the conditions specified by the manufacturer. NIH3T3 cells were stably transfected with human TrkB plasmid. PC12 cells were grown in DMEM medium (11965084, Gibco, Grand Island, NY, USA) containing 10% Horse Serum (16050122, Gibco, Grand Island, NY, USA), 5% Fetal Bovine Serum (10270106, Gibco, Grand Island, NY, USA), 100 units/mL Penicillin and 0.1 mg/mL Streptomycin (15140122, Gibco, Grand Island, NY, USA) at 5% CO2 and 37 °C. Cells were used between passages 5–20. HEK293T and NIH3T3 cells were grown in the same medium as PC12 cells supplemented with 10% Fetal Bovine Serum and lacking Horse Serum. For transient transfection of HEK293T cells, lipofectamine was used and cells were transfected with human p75^NTR and Traf6 plasmids. To determine the intracellular activity of endogenous secretases, we tagged (tGFP) a truncated mutant (Tm) of APP containing the original amino acids sequence from M516 to N773. This Tm conserves the secretases cleavage sites, clathrin binding site, tau protein binding site, collagen binding site and some glycosylation sites critical for protein localization and intracellular trafficking. The cDNA of the TmAPP gene was amplified by PCR and subcloned into pturbo-GFP vector. […]

[2] = Metabolic stability in human liver microsomes; type: in vitro ADME; settings: 1 μM, 0.5 mg/mL microsomes, 1 mM NADPH, t = 60 min
Procedure: Human liver microsome (pooled) concentration was set at 0.5 mg/mL and 1 mM NADPH served as a cofactor for oxidative (CYP-mediated) metabolic stability profiling. ENT-A013 was tested at 1 μM. Incubation conditions ensured linear metabolite formation with respect to reaction time and protein concentration. Incubations took place in triplicates at 37 °C in the presence of negative and positive controls (low vs. rapid clearance). Each reaction was terminated after the specified incubation period (60 min) and plates were read on Lionheart FX (BioTek, Winooski, VT, USA). Residual (%) of time zero (ENT-A013 depletion) was determined.

T1 sequence (Q16620 32-822): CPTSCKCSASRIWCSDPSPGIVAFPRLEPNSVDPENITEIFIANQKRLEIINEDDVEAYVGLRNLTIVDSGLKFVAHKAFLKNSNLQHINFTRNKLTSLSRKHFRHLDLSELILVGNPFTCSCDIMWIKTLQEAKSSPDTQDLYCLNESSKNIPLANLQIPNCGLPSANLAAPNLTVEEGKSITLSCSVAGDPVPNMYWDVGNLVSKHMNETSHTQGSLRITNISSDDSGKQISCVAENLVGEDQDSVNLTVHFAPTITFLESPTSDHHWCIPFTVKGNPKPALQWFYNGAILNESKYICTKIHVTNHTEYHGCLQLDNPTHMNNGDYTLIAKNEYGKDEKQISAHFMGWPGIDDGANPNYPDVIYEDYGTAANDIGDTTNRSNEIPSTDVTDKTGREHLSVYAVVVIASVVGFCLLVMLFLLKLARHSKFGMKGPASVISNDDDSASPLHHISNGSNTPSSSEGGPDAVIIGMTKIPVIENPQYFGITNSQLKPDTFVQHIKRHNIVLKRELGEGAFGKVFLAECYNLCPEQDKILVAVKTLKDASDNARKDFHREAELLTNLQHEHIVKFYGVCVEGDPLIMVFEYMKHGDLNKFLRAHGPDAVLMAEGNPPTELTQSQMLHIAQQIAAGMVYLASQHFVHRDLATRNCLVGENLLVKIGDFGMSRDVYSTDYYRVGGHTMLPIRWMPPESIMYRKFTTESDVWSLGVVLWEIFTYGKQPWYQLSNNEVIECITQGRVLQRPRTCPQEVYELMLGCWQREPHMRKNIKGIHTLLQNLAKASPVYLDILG

## CC12CCC(O)CC1=CCC1C2CCC2(C)C1CCC21CC1C=CBr [ENT-A013, (2′R,3S,17S)-2′-(2-Bromovinyl)-5-Androstene-17,1′-Cyclopropan-3-ol]
[1]
  TrkB phosphorylation (in words): did not induce phosphorylation
[2]
  residual of time zero: 93%
